Two molecules from ChEMBL document CHEMBL5728119, “1,2-dithiolane compounds useful in neuroprotection, autoimmune and cancer diseases and conditions” (2020) can be followed below.

The target of test [1] is Tyrosine-protein kinase Fyn (Homo sapiens, UniProt P06241). As to the kind of experiment: (§1) Radioisotope Filter Binding Assay: IC50 Table 13-20: The protocol calls for test compound of the invention to be incubated with kinase, substrate, cofactors, and radio-isotope-labeled ATP (33P-gamma-ATP). The reaction mixtures are then spotted onto filter papers which bind the radioisotope labeled catalytic product. Unreacted phosphate is removed via washing. The reagents used include base reaction buffer; 20 mM Hepes (pH 7.5), 10 mM MgCl2, 1 mM EGTA, 0.02% Brij35, 0.02 mg/ml BSA, 0.1 mM Na3VO4, 2 mM DTT, 1% DMSO. The reaction procedure include the following steps: (1) prepare indicated substrate in freshly prepared base reaction buffer, (2) deliver any required cofactors to the substrate solution above, (3) deliver indicated kinase into the substrate solution and gently mix, (4) deliver compounds in DMSO into the kinase reaction mixture by Acoustic technology (Echo550; nanoliter range), incubate for 20 minutes at room temperature, (5) deliver 33P-ATP (specific activity 10 μCi/μL) into the reaction mixture to initiate the reaction, (6) incubate kinase reaction for 2 hours at room temperature, (7) reactions are spotted onto P81 ion exchange paper, (8) detect kinase activity by filter-binding method.
Tyrosine-protein kinase Fyn, sequence (P06241 whole entry): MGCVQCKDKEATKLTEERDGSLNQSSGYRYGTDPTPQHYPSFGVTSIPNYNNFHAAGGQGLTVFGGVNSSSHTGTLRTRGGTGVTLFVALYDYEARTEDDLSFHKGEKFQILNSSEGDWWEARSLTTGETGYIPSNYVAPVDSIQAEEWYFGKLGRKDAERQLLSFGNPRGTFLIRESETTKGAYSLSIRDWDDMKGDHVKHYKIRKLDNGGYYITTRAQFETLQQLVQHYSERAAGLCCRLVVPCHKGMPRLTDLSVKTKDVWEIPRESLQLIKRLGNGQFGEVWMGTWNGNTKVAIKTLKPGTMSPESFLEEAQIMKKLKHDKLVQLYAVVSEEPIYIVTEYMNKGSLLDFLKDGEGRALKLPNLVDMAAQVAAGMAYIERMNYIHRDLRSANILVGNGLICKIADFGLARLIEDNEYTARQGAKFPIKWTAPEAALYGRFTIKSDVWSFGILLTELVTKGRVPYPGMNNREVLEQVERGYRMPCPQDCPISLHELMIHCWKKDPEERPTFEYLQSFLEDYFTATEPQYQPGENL

Test [2] concerns the target T1, Phosphatidylinositol 4,5-bisphosphate 3-kinase catalytic subunit delta isoform (Homo sapiens, UniProt O00329).
T1 sequence (O00329 whole entry): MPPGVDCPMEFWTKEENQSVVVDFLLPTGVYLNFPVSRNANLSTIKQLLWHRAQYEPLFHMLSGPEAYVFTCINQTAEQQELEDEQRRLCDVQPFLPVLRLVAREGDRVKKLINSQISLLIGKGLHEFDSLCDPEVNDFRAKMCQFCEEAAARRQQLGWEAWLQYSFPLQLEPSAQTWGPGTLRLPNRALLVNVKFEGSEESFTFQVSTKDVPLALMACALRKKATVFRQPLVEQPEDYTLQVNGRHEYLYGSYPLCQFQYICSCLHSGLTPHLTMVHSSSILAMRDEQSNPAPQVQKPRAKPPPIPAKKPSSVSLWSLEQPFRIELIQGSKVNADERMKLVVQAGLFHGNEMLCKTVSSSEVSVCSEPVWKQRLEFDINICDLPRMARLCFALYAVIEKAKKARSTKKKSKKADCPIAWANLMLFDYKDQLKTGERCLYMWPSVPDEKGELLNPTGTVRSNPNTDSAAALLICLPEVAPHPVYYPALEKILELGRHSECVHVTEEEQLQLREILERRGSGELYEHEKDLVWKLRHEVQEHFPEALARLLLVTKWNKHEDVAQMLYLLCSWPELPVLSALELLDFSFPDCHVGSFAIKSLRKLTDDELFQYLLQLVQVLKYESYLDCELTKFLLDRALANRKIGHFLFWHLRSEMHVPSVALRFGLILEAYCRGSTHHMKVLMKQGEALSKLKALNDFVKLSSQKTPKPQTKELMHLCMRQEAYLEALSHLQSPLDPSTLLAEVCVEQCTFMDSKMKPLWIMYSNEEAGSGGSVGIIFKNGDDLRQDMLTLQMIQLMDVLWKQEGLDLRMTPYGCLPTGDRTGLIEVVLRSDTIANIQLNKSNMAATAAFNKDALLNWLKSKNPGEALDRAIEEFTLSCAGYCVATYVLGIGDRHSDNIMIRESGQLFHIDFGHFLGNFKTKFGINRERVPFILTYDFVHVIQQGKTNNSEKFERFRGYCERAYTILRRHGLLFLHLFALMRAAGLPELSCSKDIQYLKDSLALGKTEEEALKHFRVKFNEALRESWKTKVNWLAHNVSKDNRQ
Described as §1.

A word on the IC50: it is the concentration at which inhibition is half-maximal. With `Nc1ncnc2c1c(-c1ccc(Oc3ccccc3)c(F)c1)nn2CC1SSCC1OC(=O)c1ccccc1` (configuration not stated), the IC50 in test [1] is 750 nM.

For the molecule `Nc1nc2cc(-c3nn(C[C@@H]4SSC[C@H]4OC(=O)c4ccccc4)c4ncnc(N)c34)ccc2o1` (relative stereo), the IC50 in test [2] stood at 750 nM.
